From DBAASP
Converted amounts (≈) assume the structure as drawn. “And” between values parts separate entries of the source, which are not always exact repeats. Equal entries are not always repeated.

Columns and labels:
Experiment in all cases: ≥ marks a high value that may be exact or a test limit, other limits are often not marked, values filed in µg/mL are converted to µM
Escherichia coli UB1005 = system: Escherichia coli UB1005
[1] = system: Salmonella enterica subsp. enterica serovar Typhimurium C77-31
[2] = system: Pseudomonas aeruginosa ATCC 27853
[3] = system: Pseudomonas aeruginosa ATCC 21630
[4] = system: Bacillus subtilis ATCC 11060
[5] = system: Escherichia coli CVCC 1515
[6] = system: Staphylococcus aureus ATCC 25923
[7] = system: Pseudomonas aeruginosa ATCC 21625
Escherichia coli ER2566 = system: Escherichia coli ER2566
[8] = system: Salmonella enterica subsp. enterica serovar Typhimurium ATCC 14028
Escherichia coli 078 = system: Escherichia coli 078
[9] = system: Enterococcus faecalis ATCC 29212
[10] = system: Staphylococcus aureus ATCC 29213
[11] = system: Staphylococcus epidermidis ATCC 12228
[12] = system: Escherichia coli CMCC 44102
Escherichia coli K88 = system: Escherichia coli K88
[13] = system: Salmonella enterica subsp. enterica serovar Pullorum C79-13
[14] = system: Escherichia coli ATCC 25922
[15] = system: Pseudomonas aeruginosa ATCC 10419
[16] = system: Enterococcus faecalis 1F-1
[17] = system: Bacillus cereus ATCC 14579
Staphylococcus aureus MR = system: Staphylococcus aureus MR
[18] = system: Pseudomonas aeruginosa PAO1
[19] = system: Enterococcus faecium 4W-9
[20] = system: Salmonella enterica ATCC H9812
[21] = system: Bacillus licheniformis ATCC 14580
[22] = system: Enterococcus faecium 5F-10
[23] = system: Bacillus amyloliquefaciens ATCC 23842
[24] = system: Bacillus subtilis ATCC 6051
Enterococcus faecalis A4 = system: Enterococcus faecalis A4
[25] = system: Staphylococcus aureus 215
[26] = system: Proteus mirabilis ATCC 35659
Escherichia coli NDM-1 = system: Escherichia coli NDM-1
Klebsiella oxytoca = system: Klebsiella oxytoca
[27] = system: Bacillus subtilis ATCC 23857
Escherichia coli O157:H7 = system: Escherichia coli O157:H7
[28] = system: Salmonella typhimurium PY1
[29] = system: Staphylococcus aureus ATCC 1717
Enterococcus faecalis = system: Enterococcus faecalis
Citrobacter freundii = system: Citrobacter freundii
[30] = system: Pseudomonas aeruginosa ATCC 15692
Morganella morganii = system: Morganella morganii
Enterobacter cloacae = system: Enterobacter cloacae
[31] = system: Klebsiella pneumoniae NDM-1
[32] = system: Bacillus subtilis KCTC 2217
[33] = system: Acinetobacter baumannii KCTC 2508
[34] = system: Staphylococcus epidermidis KCTC 1917
[35] = system: Enterococcus faecium ATCC 51559
[36] = system: Pseudomonas aeruginosa CCARM 2095
[37] = system: Escherichia coli KCTC 1682
[38] = system: Staphylococcus aureus CCARM 3090
[39] = system: Staphylococcus aureus CCARM 3089
[40] = system: Salmonella typhimurium KCTC 1926
[41] = system: Pseudomonas aeruginosa KCTC 1637
[42] = system: Staphylococcus aureus KCTC 1621
[43] = system: Bacillus subtilis KCTC 3068
[44] = system: Staphylococcus aureus CCARM 3095

## CC[C@H](C)[C@H](NC(=O)[C@H](CCCCN)NC(=O)[C@H](CCCN=C(N)N)NC(=O)[C@H](CC(C)C)NC(=O)[C@H](Cc1ccccc1)NC(=O)[C@H](CCCN=C(N)N)NC(=O)CNC(=O)[C@H](Cc1ccccc1)NC(=O)[C@@H](N)CCCN=C(N)N)C(=O)N[C@@H](CCCN=C(N)N)C(=O)N[C@@H](CCCN=C(N)N)C(=O)N[C@@H](Cc1ccccc1)C(=O)N[C@@H](CCCN=C(N)N)C(=O)N1CCC[C@H]1C(=O)N[C@@H](CCCCN)C(=O)N[C@H](C(=O)N[C@H](C(=O)N[C@H](C(=O)N[C@H](C(=O)N[C@H](C(=O)N[C@@H](CCC(N)=O)C(=O)NCC(=O)N[C@@H](CO)C(=O)N[C@@H](C)C(=O)N[C@@H](CCCN=C(N)N)C(=O)N[C@@H](Cc1ccccc1)C(=O)NCC(N)=O)[C@@H](C)CC)[C@@H](C)O)[C@@H](C)CC)[C@@H](C)O)C(C)C [RFGRFLRKIRRFRPKVTITIQGSARFG]
Escherichia coli UB1005
  MIC: 1.01 µM (≈ 3.3 µg/mL)
[1]
  MIC: 4.01 µM (≈ 13.1 µg/mL)
[2]
  MIC: 1.99 µM (≈ 6.5 µg/mL)
[3]
  MIC: 7.99 µM (≈ 26.1 µg/mL)
[4]
  MIC: 16 µM (≈ 52.2 µg/mL)
[5]
  MIC: 7.99 µM (≈ 26.1 µg/mL)
[6]
  MIC: 1.01 µM (≈ 3.3 µg/mL)
[7]
  MIC: 1.99 µM (≈ 6.5 µg/mL)
Escherichia coli ER2566
  MIC: 0.49 µM (≈ 1.6 µg/mL)
[8]
  MIC: 4.01 µM (≈ 13.1 µg/mL)
Escherichia coli 078
  MIC: 7.99 µM (≈ 26.1 µg/mL)
[9]
  MIC: 16 µM (≈ 52.2 µg/mL)
[10]
  MIC: 1.99 µM (≈ 6.5 µg/mL)
[11]
  MIC: 16 µM (≈ 52.2 µg/mL)
[12]
  MIC: 1.01 µM (≈ 3.3 µg/mL)
Escherichia coli K88
  MIC: 1.99 µM (≈ 6.5 µg/mL)
[13]
  MIC: 4.01 µM (≈ 13.1 µg/mL)
[14]
  MIC: 1.99 µM and 3.83 µM
[15]
  MIC: 4.01 µM (≈ 13.1 µg/mL)

## CC(C)C[C@H](NC(=O)[C@H](CC(C)C)NC(=O)[C@@H](N)CCC(=O)O)C(=O)N[C@@H](CO)C(=O)N[C@@H](CCCN=C(N)N)C(=O)N[C@H](C(=O)N[C@@H](CC(=O)O)C(=O)O)C(C)C [ELLSRVD]
[16]
  MIC: ≥ 154 µM
[17]
  MIC: ≥ 77 µM
Staphylococcus aureus MR
  MIC: 3.4 µM (≈ 2.83 µg/mL)
[18]
  MIC: > 154 µM
[19]
  MIC: ≥ 154 µM
[20]
  MIC: ≥ 154 µM
[10]
  MIC: 4.81 µM (≈ 4 µg/mL)
[21]
  MIC: ≥ 77 µM
[22]
  MIC: ≥ 154 µM
[23]
  MIC: ≥ 77 µM
[24]
  MIC: ≥ 77 µM
Enterococcus faecalis A4
  MIC: ≥ 154 µM
[14]
  MIC: > 154 µM
[25]
  MIC: 4.81 µM (≈ 4 µg/mL)
[26]
  MIC: ≥ 154 µM

## CC[C@H](C)[C@H](NC(=O)CN)C(=O)N[C@H](C(=O)N[C@@H](C)C(=O)NCC(=O)N[C@H](C(=O)N[C@H](C(=O)N[C@H](C(=O)N[C@@H](CCCCN)C(=O)N[C@H](C(=O)N[C@@H](CCCCN)C(=O)N[C@@H](CCCCN)C(N)=O)[C@@H](C)CC)[C@@H](C)CC)[C@@H](C)CC)[C@@H](C)CC)[C@@H](C)CC [GIIAGIIIKIKK]
Escherichia coli NDM-1
  MIC: 16 µM (≈ 20.3 µg/mL)
Klebsiella oxytoca
  MIC: 16 µM (≈ 20.3 µg/mL)
[27]
  MIC: 8 µM (≈ 10.1 µg/mL)
Escherichia coli O157:H7
  MIC: ≥ 32 µM
[28]
  MIC: ≥ 64 µM
[29]
  MIC: ≥ 128 µM
Enterococcus faecalis
  MIC: 16 µM (≈ 20.3 µg/mL)
Citrobacter freundii
  MIC: 8 µM (≈ 10.1 µg/mL)
[30]
  MIC: ≥ 64 µM
Morganella morganii
  MIC: ≥ 128 µM
Enterobacter cloacae
  MIC: 22.6 µM (≈ 28.6 µg/mL)
[31]
  MIC: 22.6 µM (≈ 28.6 µg/mL)

## CC(C)C[C@H](NC(=O)[C@H](CCCCN)NC(=O)[C@H](CCCCN)NC(=O)[C@H](CC(C)C)NC(=O)[C@H](CC(C)C)NC(=O)[C@H](CCCCN)NC(=O)[C@H](CCCCN)NC(=O)[C@H](CC(C)C)NC(=O)[C@H](CC(C)C)NC(=O)[C@@H]1CCCN1C(=O)[C@H](CCCCN)NC(=O)[C@@H](N)CCCCN)C(N)=O [KKPLLKKLLKKL]
[32]
  MIC: 1.56 µM (≈ 2.26 µg/mL)
[6]
  MIC: 1.56 µM and > 0.78 µM
[33]
  MIC: 25 µM (≈ 36.2 µg/mL)

## CC[C@H](C)[C@H](NC(=O)[C@@H](NC(=O)[C@H](Cc1cnc[nH]1)NC(=O)[C@H](CCCN=C(N)N)NC(=O)[C@H](C)NC(=O)[C@H](CCCN=C(N)N)NC(=O)[C@H](CC(C)C)NC(=O)[C@H](CO)NC(=O)[C@H](C)NC(=O)[C@H](CO)NC(=O)[C@H](CC(C)C)NC(=O)[C@@H](N)CC(N)=O)[C@@H](C)O)C(=O)N1CCC[C@H]1C(=O)N[C@@H](CCC(N)=O)C(=O)N[C@@H](CO)C(=O)N[C@@H](CCCN=C(N)N)C(=O)N[C@@H](CCCCN)C(=O)N[C@@H](Cc1ccccc1)C(=O)NCC(=O)N[C@@H](CCCN=C(N)N)C(=O)N[C@@H](CCCN=C(N)N)C(=O)O [NLSASLRARHTIPQSRKFGRR]
[34]
  MIC: 6.3 µM (≈ 15.4 µg/mL)
[35]
  MIC: ≥ 50 µM
[36]
  MIC: 12.5 µM (≈ 30.6 µg/mL)
[37]
  MIC: 6.3 µM (≈ 15.4 µg/mL)
[38]
  MIC: ≥ 50 µM
[39]
  MIC: 25 µM (≈ 61.3 µg/mL)
[40]
  MIC: 6.3 µM (≈ 15.4 µg/mL)
[41]
  MIC: 6.3 µM (≈ 15.4 µg/mL)
[42]
  MIC: 12.5 µM (≈ 30.6 µg/mL)
[43]
  MIC: 12.5 µM (≈ 30.6 µg/mL)
[44]
  MIC: 25 µM (≈ 61.3 µg/mL)
